Results taken from ChEMBL document CHEMBL1201862, “PubChem BioAssay data set” (2004).
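Tested at 5 concentrations; 48 h exposure; 96-well plates; endpoints linearly interpolated, else capped at highest concentration. Here, GI50 denotes the concentration required for 50% inhibition of growth.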 The source made the active and inactive calls. Cut-off read from the data, not from the text of the source: active = GI50 up to about 1.1 µM and inactive = higher.

Experiments:
Experiment in all cases: NCI tumour cell line growth inhibition, 48 h
SF-295 = test system: SF-295
SNB-75 = test system: SNB-75
OVCAR-3 = test system: OVCAR-3
NCI-H460 = test system: NCI-H460
IGROV-1 = test system: IGROV-1
NCI-H522 = test system: NCI-H522
SF-539 = test system: SF-539
XF498 = test system: XF498
UO-31 = test system: UO-31
U-251 = test system: U-251
OVCAR-4 = test system: OVCAR-4
OVCAR-8 = test system: OVCAR-8
UACC-62 = test system: UACC-62
SNB-19 = test system: SNB-19
HT-29 = test system: HT-29
DLD-1 = test system: DLD-1
HL-60 = test system: HL-60
KM-20L2 = test system: KM-20L2
COLO 205 = test system: COLO 205
K562 = test system: K562
M19-MEL = test system: M19-MEL
M14 = test system: M14
SF-268 = test system: SF-268
CAKI-1 = test system: CAKI-1
RXF 631 = test system: RXF 631
DMS-273 = test system: DMS-273
CCRF-CEM = test system: CCRF-CEM
Malme-3M = test system: Malme-3M
SW-620 = test system: SW-620
HOP-18 = test system: HOP-18
NCI-H23 = test system: NCI-H23
KM12 = test system: KM12
LOX IMVI = test system: LOX IMVI
ACHN = test system: ACHN
TK-10 = test system: TK-10
A549 = test system: A549
SK-MEL-2 = test system: SK-MEL-2
EKVX = test system: EKVX
HCT-15 = test system: HCT-15
SK-MEL-28 = test system: SK-MEL-28
MOLT-4 = test system: MOLT-4
HCC 2998 = test system: HCC 2998
SN12C = test system: SN12C
OVCAR-5 = test system: OVCAR-5
A498 = test system: A498
HOP-92 = test system: HOP-92
UACC-257 = test system: UACC-257
SK-MEL-5 = test system: SK-MEL-5
RPMI-8226 = test system: RPMI-8226
NCI-H226 = test system: NCI-H226
SK-OV-3 = test system: SK-OV-3
786-0 = test system: 786-0
LXFL 529 = test system: LXFL 529
RXF 393 = test system: RXF 393

O=C(O)CCCNS(=O)(=O)c1ccc2ccccc2c1
GI50 (SF-295): > 100 µM (inactive) | GI50 (SNB-75): > 100 µM (inactive) | GI50 (OVCAR-3): > 100 µM (inactive) | GI50 (NCI-H460): > 100 µM (inactive) | GI50 (IGROV-1): > 100 µM (inactive) | GI50 (NCI-H522): > 100 µM (inactive) | GI50 (SF-539): > 100 µM (inactive) | GI50 (XF498): > 100 µM (inactive) | GI50 (UO-31): > 100 µM (inactive) | GI50 (U-251): > 100 µM (inactive) | GI50 (OVCAR-4): > 100 µM (inactive) | GI50 (OVCAR-8): > 100 µM (inactive) | GI50 (UACC-62): > 100 µM (inactive) | GI50 (SNB-19): > 100 µM (inactive) | GI50 (HT-29): > 100 µM (inactive) | GI50 (DLD-1): > 100 µM (inactive) | GI50 (HL-60): > 100 µM (inactive) | GI50 (KM-20L2): > 100 µM (inactive) | GI50 (COLO 205): > 100 µM (inactive) | GI50 (K562): > 100 µM (inactive) | GI50 (M19-MEL): > 100 µM (inactive) | GI50 (M14): > 100 µM (inactive) | GI50 (SF-268): > 100 µM (inactive) | GI50 (CAKI-1): > 100 µM (inactive) | GI50 (RXF 631): > 100 µM (inactive) | GI50 (DMS-273): > 100 µM (inactive) | GI50 (CCRF-CEM): > 100 µM (inactive) | GI50 (Malme-3M): > 100 µM (inactive) | GI50 (SW-620): > 100 µM (inactive) | GI50 (HOP-18): > 100 µM (inactive) | GI50 (NCI-H23): > 100 µM (inactive) | GI50 (KM12): > 100 µM (inactive) | GI50 (LOX IMVI): > 100 µM (inactive) | GI50 (ACHN): > 100 µM (inactive) | GI50 (TK-10): > 100 µM (inactive) | GI50 (A549): > 100 µM (inactive) | GI50 (SK-MEL-2): > 100 µM (inactive) | GI50 (EKVX): > 100 µM (inactive) | GI50 (HCT-15): > 100 µM | GI50 (SK-MEL-28): > 100 µM (inactive) | GI50 (MOLT-4): > 100 µM (inactive) | GI50 (HCC 2998): > 100 µM (inactive) | GI50 (SN12C): > 100 µM (inactive) | GI50 (OVCAR-5): > 100 µM (inactive) | GI50 (A498): > 100 µM (inactive) | GI50 (HOP-92): 97.7 µM (inactive) | GI50 (UACC-257): > 100 µM (inactive) | GI50 (SK-MEL-5): > 100 µM (inactive) | GI50 (RPMI-8226): > 100 µM (inactive) | GI50 (NCI-H226): > 100 µM (inactive) | GI50 (SK-OV-3): > 100 µM (inactive) | GI50 (786-0): > 100 µM (inactive) | GI50 (LXFL 529): > 100 µM (inactive) | GI50 (RXF 393): > 100 µM (inactive)
